Assay results reported in paper PMC3210414 (Nature structural & molecular biology, 2011).
pKd: −log10 of the molar value.

Key:
EF-Tu (T. thermophilus) [1] = molecular target: EF-Tu (T. thermophilus) (Thermus thermophilus, UniProt Q5SHN6); assay: nitrocellulose filter binding with [3H]GDP
EF-Tu (T. thermophilus) [2] = molecular target: EF-Tu (T. thermophilus) (Thermus thermophilus, UniProt Q5SHN6, T395C); assay: nitrocellulose filter binding with [3H]GDP

## Nc1nc2c(ncn2[C@@H]2O[C@H](COP(=O)(O)OP(=O)(O)O)[C@@H](O)[C@H]2O)c(=O)[nH]1 [GDP]
EF-Tu (T. thermophilus) [1]
  pKd: 8.15
EF-Tu (T. thermophilus) [2]
  pKd: 7.96
